This experiment has as its target T1, human pancreas Glucokinase (GK) (Homo sapiens, UniProt P35557).
T1 construct: His6; made in house; host or cells: Escherichia coli
T1 sequence (P35557 1-465): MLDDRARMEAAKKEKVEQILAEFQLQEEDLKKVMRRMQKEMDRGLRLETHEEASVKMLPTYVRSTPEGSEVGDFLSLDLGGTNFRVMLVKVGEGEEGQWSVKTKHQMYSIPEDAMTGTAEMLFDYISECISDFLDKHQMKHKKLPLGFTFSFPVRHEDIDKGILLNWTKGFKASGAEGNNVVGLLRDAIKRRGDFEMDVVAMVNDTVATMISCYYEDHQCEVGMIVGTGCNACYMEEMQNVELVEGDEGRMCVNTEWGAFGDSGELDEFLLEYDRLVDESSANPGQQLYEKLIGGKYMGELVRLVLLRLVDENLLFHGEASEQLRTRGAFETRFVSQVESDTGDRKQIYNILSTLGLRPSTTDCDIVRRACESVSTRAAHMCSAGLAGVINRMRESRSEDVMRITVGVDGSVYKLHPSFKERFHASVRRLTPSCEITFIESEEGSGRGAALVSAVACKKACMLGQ
Nature of the experiment: Glucokinase enzyme assay, pancreas GK. It is filed as biochemical. To be noted: for EC50: concentration that produces 50% activation above vehicle control; for EC100%: concentration that produces 100% activation above vehicle control; for activation at 50 µM: increase in GK activity above vehicle control, compound 50 μM, 12 mM glucose; for % Activation @ 5 μM: cell states @ 5 μM instead of the head's 50 μM. The text has this:
An enzymatic Glucokinase (GK) assay using purified recombinant human liver/pancreas enzyme was used to evaluate the effects of potential small molecule modulators.
In this assay, GK catalyzes glucose phosphorylation in the presence of ATP. The product of this reaction, glucose-6-phosphate, was then oxidized by an excess of glucose-6-phosphate dehydrogenase to produce gluconate-6-phosphate with concomitant reduction of nicotinamide adenine dinucleotide (NAD). […] Human GK (Liver/Pancreas) was expressed in Escherichia coli as a (His) 6-tagged fusion protein and was purified by metal chelate affinity chromatography. The assay was performed in a final incubation volume of 80 μl in a 96-well clear low UV absorption plates. The incubation mixture consisted of 25 mM HEPES, 2 mM MgSO4, 1 mM dithiothreotol (DTT), 1 mg/mL bovine serum albumin (BSA), 1 mM ATP, 1 mM NAD, and 12 mM glucose, 10 units per mL glucose-6-phosphate dehydrogenase, and +/−300 ng per mL GK. For determination of the affinity (Km) and Vmax, different concentrations of glucose ranging from 0.5 mM to 40 mM were used in the assay; see Grimsby, J., Sarabu, R.; Grippo, J. F.; et. al. Science 2003, 301, 370-373. […] EC50% (μM) was calculated as the effective concentration of the compound that produces 50% activation above the vehicle control, and EC100% (μM) was calculated as the effective concentration of the compound that produces 100% activation above the vehicle control.

This is an account of results in patent US8796313B2, “Substituted dihydroisoindolones as allosteric modulators of glucokinase” (Janssen Pharmaceutica N.V., priority 2005, dated 2014).

In the case of `O=C(CCC1c2c(F)cccc2C(=O)N1Cc1ccc(F)cc1)Nc1cc2ccccc2cn1` (stereo not drawn) [Compound 29, 3-[7-Fluoro-2-(4-fluoro-benzyl)-3-oxo-2,3-dihydro-1H-isoindol-1-yl]-N-isoquinolin-3-yl-propionamide], the EC50 was 46 nM, the “EC100%” value was determined as 0.32 µM and the activation at 50 µM was 212%.
Consider `COCOCc1ccc(NC(=O)CCC2c3c(F)cccc3C(=O)N2Cc2ccc(F)cc2)nc1` (stereo not drawn) [Compound 30, 3-[7-Fluoro-2-(4-fluoro-benzyl)-3-oxo-2,3-dihydro-1H-isoindol-1-yl]-N-(5methoxymethoxymethyl-pyridin-2-yl)-propionamide], for which the EC50 was 230 nM, the “EC100%” value amounted to 1.2 µM and the activation at 50 µM amounted to 175%.
On the same counts, the results for `O=C(CCC1c2c(F)cccc2C(=O)N1Cc1ccc(F)cc1)Nc1ccc(-c2ccccc2)cn1` (stereo not drawn) [Compound 31, 3-[7-Fluoro-2-(4-fluoro-benzyl)-3-oxo-2,3-dihydro-1H-isoindol-1-yl]-N-(5-phenyl-pyridin-2-yl)-propionamide] are 1900 nM, 300 µM and 64.1%.
The like results for `O=C(CCC1c2c(F)cccc2C(=O)N1Cc1ccc(F)cc1)Nc1ccc(Br)cn1` (stereo not drawn) [Compound 32, N-(5-Bromo-pyridin-2-yl)-3-[7-fluoro-2-(4-fluoro-benzyl)-3-oxo-2,3-dihydro-1H-isoindol-1-yl]-propionamide] were, in that order, 13 nM, 0.39 µM and 147%.
On the same counts, the results for `O=C(CCC1c2c(F)cccc2C(=O)N1Cc1ccc(F)cc1)Nc1ccc(-c2ccc(F)cc2)cn1` (stereo not drawn) [Compound 33, 3-[7-Fluoro-2-(4-fluoro-benzyl)-3-oxo-2,3-dihydro-1H-isoindol-1-yl]-N-[5-(4-fluoro-Phenyl)-pyridin-2-yl]-propionamide] are 488 nM, 4.5 µM and 177%.
Regarding `NS(=O)(=O)c1ccc(NC(=O)CCC2c3c(F)cccc3C(=O)N2Cc2ccc(F)cc2)nc1` (stereo not drawn) [Compound 34, 3-[7-Fluoro-2-(4-fluoro-benzyl)-3-oxo-2,3-dihydro-1H-isoindol-1-yl]-N-(5-sulfamoyl-pyridin-2-yl)-propionamide], the EC50 was 407 nM, the “EC100%” value amounted to 4.3 µM and the activation at 50 µM was 142%.
On the same counts, the results for `O=C(CCC1c2cccc(Cl)c2C(=O)N1Cc1ccc(F)cc1)Nc1ccccn1` (stereo not drawn) [Compound 35, 3-[4-chloro-2-(4-fluoro-benzyl)-3-oxo-2,3-dihydro-1H-isoindol-1-yl]-N-pyridin-2-yl-propionamide] are 230 nM, 0.75 µM and 306%.
The like results for `O=C(CCC1c2c(Cl)cccc2C(=O)N1Cc1ccc(F)cc1)Nc1ccccn1` (stereo not drawn) [Compound 36, 3-[7-Chloro-2-(4-fluoro-benzyl)-3-oxo-2,3-dihydro-1H-isoindol-1-yl]-N-pyridin-2-yl-propionamide] were, in that order, 143 nM, 0.411 µM and 342%.
On the same counts, the results for `CC(=O)c1ccc(NC(=O)CCC2c3c(F)cccc3C(=O)N2Cc2ccc(F)cc2)nc1` (stereo not drawn) [Compound 37, N-(5-Acetyl-pyridin-2-yl)-3-[7-fluoro-2-(4-fluoro-benzyl)-3-oxo-2,3-dihydro-1H-isoindol-1-yl]-propionamide] are 54 nM, 0.225 µM and 259%.
Take `O=C(CCC1c2cccc(Cl)c2C(=O)N1Cc1ccc(F)cc1)Nc1ccc(Br)cn1` (stereo not drawn) [Compound 38, N-(5-Bromo-pyridin-2-yl)-3-[4-chloro-2-(4-fluoro-benzyl)-3-oxo-2,3-dihydro-1H-isoindol-1-yl]-propionamide]: the EC50 came out at 173 nM, the “EC100%” value was 0.615 µM and the activation at 50 µM is 309%.
On the same counts, the results for `O=C(CCC1c2c(Cl)ccc(Cl)c2C(=O)N1Cc1ccc(F)cc1)Nc1ccccn1` (stereo not drawn) [Compound 39, 3-[4,7-Dichloro-2-(4-fluoro-benzyl)-3-oxo-2,3-dihydro-1H-isoindol-1-yl]-N-pyridin-2-yl-propionamide] are 433 nM, 2.5 µM and 206%.
Compound `O=C(CCC1c2c(F)cccc2C(=O)N1Cc1ccc(F)cc1)Nc1cccc[n+]1[O-]` (stereo not drawn) [Compound 40, 3-[7-Fluoro-2-(4-fluoro-benzyl)-3-oxo-2,3-dihydro-1H-isoindol-1-yl]-N-(1-oxy-pyridin-2-yl)-propionamide] came in with an activation at 50 µM of 52.3%.
Consider `Cc1ccc(NC(=O)CCC2c3c(F)cccc3C(=O)N2Cc2ccc(F)cc2)nc1` (stereo not drawn) [Compound 41, 3-[7-Fluoro-2-(4-fluoro-benzyl)-3-oxo-2,3-dihydro-1H-isoindol-1-yl]-N-(5-methyl-pyridin-2-yl)-propionamide], for which the EC50 worked out at 54 nM, the “EC100%” value is 0.48 µM and the activation at 50 µM is 191%.
The like results for `O=C(CCC1c2c(F)cccc2C(=O)N1Cc1ccc(-n2cccc2)cc1)Nc1ccc(F)cn1` (stereo not drawn) [Compound 42, 3-[7-Fluoro-3-oxo-2-(4-pyrol-1-yl-benzyl)-2,3-dihydro-1H-isoindol-1-yl]-N-(5-fluoro-pyridin-2-yl)-propionamide] were, in that order, 182 nM, 1.7 µM and 168%.
On the same counts, the results for `O=C(CCC1c2c(F)cccc2C(=O)N1Cc1ccc(F)cc1)Nc1ccc(Cl)nn1` (stereo not drawn) [Compound 43, N-(6-Chloro-pyridazin-3-yl)-3-[7-fluoro-2-(4-fluoro-benzyl)-3-oxo-2,3-dihydro-1H-isoindol-1-yl]-Propionamide] are 629 nM, 5.2 µM and 152%.
`O=C(CCC1c2c(F)cccc2C(=O)N1Cc1ccc(F)cc1)Nc1ccc(Cl)cn1` (stereo not drawn) [Compound 44, N-(5-Chloro-pyridin-2-yl)-3-[7-fluoro-2-(4-fluoro-benzyl)-3-oxo-2,3-dihydro-1H-isoindol-1-yl]-propionamide]: the “% Activation @ 5 μM” value was 168 @ 5 μM %, the EC50 was found to be 71 nM and the “EC100%” value is 0.375 µM.
On the same counts, the results for `CCOC(=O)/C=C/c1ccc(NC(=O)CCC2c3c(F)cccc3C(=O)N2Cc2ccc(F)cc2)nc1` (stereo not drawn) [Compound 45, 3-(6-{3-[7-Fluoro-2-(4-fluoro-benzyl)-3-oxo-2,3-dihydro-1H-isoindol-1-yl]-propionylamino}-pyridin-3-yl)-acrylic acid ethyl ester] are 138 @ 5 μM %, 125 nM and 0.813 µM.
On the same counts, the results for `O=C(CCC1c2c(F)cccc2C(=O)N1Cc1ccc(F)cc1)Nc1ccc(C(=O)OCc2ccccc2)cn1` (stereo not drawn) [Compound 46, 6-{3-[7-Fluoro-2-(4-fluoro-benzyl)-3-oxo-2,3-dihydro-1H-isoindol-1-yl]-propionylamino}-nicotinic acid benzyl ester] are 133 @ 5 μM %, 219 nM and 1.2 µM.
For the compound `N#Cc1ccc(NC(=O)CCC2c3c(F)cccc3C(=O)N2Cc2ccc(F)cc2)nc1` (stereo not drawn) [Compound 47, N-(5-Cyano-pyridin-2-yl)-3-[7-fluoro-2-(4-fluoro-benzyl)-3-oxo-2,3-dihydro-1H-isoindol-1-yl]-propionamide], the EC50 was 420 nM, the “EC100%” value worked out at 15 µM and the activation at 50 µM was 114%.
Compound `CS(=O)(=O)c1ccc(NC(=O)CCC2c3c(F)cccc3C(=O)N2Cc2ccc(F)cc2)nc1` (stereo not drawn) [Compound 48, 3-[7-Fluoro-2-(4-fluoro-benzyl)-3-oxo-2,3-dihydro-1H-isoindol-1-yl]-N-(5-methanesulfonyl-pyridin-2-yl)-propionamide] showed an EC50 of 17000 nM and an activation at 50 µM of 62.8%.
Regarding `CN(C)c1ccc(CN2C(=O)c3cccc(F)c3C2CCC(=O)Nc2ccc(C(=O)O)cn2)cc1` (stereo not drawn) [Compound 49, 6-{3-[2-(4-Dimethylamino-benzyl)-7-fluoro-3-oxo-2,3-dihydro-1H-isoindol-1-yl]-propionylamino}-nicotinic acid], the EC50 amounted to 60 nM, the “EC100%” value worked out at 0.34 µM and the activation at 50 µM amounted to 212%.
